Assay results reported in the supplement of paper PMC11061612.

What was measured:
AZD5991 = compound: Cc1c2c(nn1C)CSCc1cc(n(C)n1)CSc1cc(c3ccccc3c1)OCCCc1c(C(=O)O)n(C)c3c-2c(Cl)ccc13 [AZD5991]; conditions: max 1 µM
Procedure, shortened: (§1)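 After 24 hours at 37°C and 5% CO2 in 1536-well plates holding 7.5 μl of DMEM/F12 or RPMI with 10% FBS, cancer cell lines were dosed for 72 hours, with final DMSO typically 0.2%. Viability came from CellTiter-Glo 2.0 luminescence, scaled between the means of blank wells and DMSO wells. A non-linear mixed effects model fitted a two-parameter logistic curve to each dose response to give the single-agent IC50.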

Alisertib = compound: COc1cc(Nc2ncc3c(n2)-c2ccc(Cl)cc2C(c2c(F)cccc2OC)=NC3)ccc1C(=O)O [Alisertib]; conditions: max 10 µM
Procedure, shortened: as §1

Taselisib = compound: Cc1nc(-c2cn3c(n2)-c2ccc(-c4cnn(C(C)(C)C(N)=O)c4)cc2OCC3)n(C(C)C)n1 [Taselisib]; conditions: max 10 µM
Procedure, shortened: as §1

AZD1390 = compound: CC(C)n1c(=O)n(C)c2cnc3cc(F)c(-c4ccc(OCCCN5CCCCC5)nc4)cc3c21 [AZD1390]; conditions: max 0.3 µM
Procedure, shortened: as §1

Prexasertib = compound: COc1cccc(OCCCN)c1-c1cc(Nc2cnc(C#N)cn2)n[nH]1 [Prexasertib]; conditions: max 1 µM
Procedure, shortened: as §1

AZD8186 = compound: C[C@@H](Nc1cc(F)cc(F)c1)c1cc(C(=O)N(C)C)cc2c(=O)cc(N3CCOCC3)oc12 [AZD8186]; conditions: max 10 µM
Procedure, shortened: as §1

Carboplatin = compound: C1CC(C1)(C(=O)[O-])C(=O)[O-].N.N.[Pt+2] [Carboplatin]; conditions: max 10 µM
Procedure, shortened: as §1

Venetoclax = compound: CC1(C)CCC(CN2CCN(c3ccc(C(=O)NS(=O)(=O)c4ccc(NCC5CCOCC5)c([N+](=O)[O-])c4)c(Oc4cnc5[nH]ccc5c4)c3)CC2)=C(c2ccc(Cl)cc2)C1 [Venetoclax]; conditions: max 1 µM
Procedure, shortened: as §1

Trametinib = compound: CC(=O)Nc1cccc(-n2c(=O)n(C3CC3)c(=O)c3c(Nc4ccc(I)cc4F)n(C)c(=O)c(C)c32)c1 [Trametinib]; conditions: max 1 µM
Procedure, shortened: as §1

AZD7648 = compound: Cc1cc2ncnn2cc1Nc1ncc2c(n1)n(C1CCOCC1)c(=O)n2C [AZD7648]; conditions: max 10 µM
Procedure, shortened: as §1

5-Fluorouracil = compound: O=c1[nH]cc(F)c(=O)[nH]1 [5-Fluorouracil]; conditions: max 20 µM
Procedure, shortened: as §1

[1] = compound: O=C(Nc1ccc2[nH]nc(-c3ccncc3)c2c1)[C@@H]1CCN(CC(=O)N2CCN(c3ccc(-c4ncccn4)cc3)CC2)C1; conditions: max 5 µM
Procedure, shortened: as §1

Gefitinib = compound: COc1cc2ncnc(Nc3ccc(F)c(Cl)c3)c2cc1OCCCN1CCOCC1 [Gefitinib]; conditions: max 10 µM
Procedure, shortened: as §1

Etoposide = compound: COc1cc([C@@H]2c3cc4c(cc3[C@@H](O[C@@H]3O[C@@H]5CO[C@@H](C)O[C@H]5[C@H](O)[C@H]3O)[C@H]3COC(=O)[C@H]23)OCO4)cc(OC)c1O [Etoposide]; conditions: max 10 µM
Procedure, shortened: as §1

MK-2206 = compound: NC1(c2ccc(-c3nc4ccn5c(=O)[nH]nc5c4cc3-c3ccccc3)cc2)CCC1 [MK-2206]; conditions: max 10 µM
Procedure, shortened: as §1

Crizotinib = compound: C[C@@H](Oc1cc(-c2cnn(C3CCNCC3)c2)cnc1N)c1c(Cl)ccc(F)c1Cl [Crizotinib]; conditions: max 10 µM
Procedure, shortened: as §1

AZD1775 = compound: C=CCn1c(=O)c2cnc(Nc3ccc(N4CCN(C)CC4)cc3)nc2n1-c1cccc(C(C)(C)O)n1 [AZD1775]; conditions: max 3 µM
Procedure, shortened: as §1

Savolitinib = compound: C[C@@H](c1ccc2nccn2c1)n1nnc2ncc(-c3cnn(C)c3)nc21 [Savolitinib]; conditions: max 1 µM
Procedure, shortened: as §1

AZD5153 = compound: COc1nnc2ccc(N3CCC(c4ccc(OCCN5CCN(C)C(=O)[C@H]5C)cc4)CC3)nn12 [AZD5153]; conditions: max 1 µM
Procedure, shortened: as §1

Selumetinib = compound: Cn1cnc2c(F)c(Nc3ccc(Br)cc3Cl)c(C(=O)NOCCO)cc21 [Selumetinib]; conditions: max 10 µM
Procedure, shortened: as §1

Olaparib = compound: O=C(c1cc(Cc2n[nH]c(=O)c3ccccc23)ccc1F)N1CCN(C(=O)C2CC2)CC1 [Olaparib]; conditions: max 10 µM
Procedure, shortened: as §1

AZD4320 = compound: CN(CC[C@H](CSC1=CC=CC=C1)NC2=C(C=C(C=C2)S(=O)(=O)NC(=O)C3=CC=C(C=C3)N4CCC(CC4)[C@H](C5=CC=CC=C5C6=CC=C(C=C6)Cl)O)S(=O)(=O)C(F)(F)F)CCO [AZD4320]; conditions: max 1 µM
Procedure, shortened: as §1

Gemcitabine = compound: Nc1ccn([C@@H]2O[C@H](CO)[C@@H](O)C2(F)F)c(=O)n1 [Gemcitabine]; conditions: max 0.3 µM
Procedure, shortened: as §1

AZD6738 = compound: C[C@@H]1COCCN1C2=NC(=NC(=C2)C3(CC3)[S@](=N)(=O)C)C4=C5C=CNC5=NC=C4 [AZD6738]; conditions: max 10 µM
Procedure, shortened: as §1

AZD5363 = compound: C1CN(CCC1(C(=O)N[C@@H](CCO)C2=CC=C(C=C2)Cl)N)C3=NC=NC4=C3C=CN4 [AZD5363]; conditions: max 10 µM
Procedure, shortened: as §1

Doxorubicin = compound: COc1cccc2c1C(=O)c1c(O)c3c(c(O)c1C2=O)C[C@@](O)(C(=O)CO)C[C@@H]3O[C@H]1C[C@H](N)[C@H](O)[C@H](C)O1 [Doxorubicin]; conditions: max 1 µM
Procedure, shortened: as §1

SRA737 = compound: N#Cc1cnc(Nc2cc(NC[C@H]3CNCCO3)c(C(F)(F)F)cn2)cn1 [SRA737]; conditions: max 10 µM
Procedure, shortened: as §1

Paclitaxel = compound: CC(=O)O[C@H]1C(=O)[C@@]2(C)[C@H]([C@H](OC(=O)c3ccccc3)[C@]3(O)C[C@H](OC(=O)[C@H](O)[C@@H](NC(=O)c4ccccc4)c4ccccc4)C(C)=C1C3(C)C)[C@]1(OC(C)=O)CO[C@@H]1C[C@@H]2O [Paclitaxel]; conditions: max 3 µM
Procedure, shortened: as §1

Lapatinib = compound: CS(=O)(=O)CCNCc1ccc(-c2ccc3ncnc(Nc4ccc(OCc5cccc(F)c5)c(Cl)c4)c3c2)o1 [Lapatinib]; conditions: max 10 µM
Procedure, shortened: as §1

AZD2811 = compound: CCN(CCO)CCCOc1ccc2c(Nc3cc(CC(=O)Nc4cccc(F)c4)[nH]n3)ncnc2c1 [AZD2811]; conditions: max 1 µM
Procedure, shortened: as §1

SN-38 = compound: CCc1c2c(nc3ccc(O)cc13)-c1cc3c(c(=O)n1C2)COC(=O)[C@]3(O)CC [SN-38]; conditions: max 0.3 µM
Procedure, shortened: as §1

AZD0156 = compound: CN(C)CCCOc1ccc(-c2ccc3ncc4c(c3c2)n(C2CCOCC2)c(=O)n4C)cn1 [AZD0156]; conditions: max 3 µM
Procedure, shortened: as §1

SG3199 = compound: CC1=CN2[C@@H](C1)C=NC3=CC(=C(C=C3C2=O)OC)OCCCCCOC4=C(C=C5C(=C4)N=C[C@@H]6CC(=CN6C5=O)C)OC [SG3199]; conditions: max 0.001 µM
Procedure, shortened: as §1

Dasatinib = compound: CC1=C(C(=CC=C1)Cl)NC(=O)C2=CN=C(S2)NC3=CC(=NC(=N3)C)N4CCN(CC4)CCO [Dasatinib]; conditions: max 2 µM
Procedure, shortened: as §1

Palbociclib = compound: CC(=O)c1c(C)c2cnc(Nc3ccc(N4CCNCC4)cn3)nc2n(C2CCCC2)c1=O [Palbociclib]; conditions: max 10 µM
Procedure, shortened: as §1

Cell Line	IC50, cell viability 72 h (AZD5991) [nM]	IC50, cell viability 72 h (Alisertib) [nM]	IC50, cell viability 72 h (Taselisib) [nM]	IC50, cell viability 72 h (AZD1390) [nM]	IC50, cell viability 72 h (Prexasertib) [nM]	IC50, cell viability 72 h (AZD8186) [nM]	IC50, cell viability 72 h (Carboplatin) [nM]	IC50, cell viability 72 h (Venetoclax) [nM]	IC50, cell viability 72 h (Trametinib) [nM]	IC50, cell viability 72 h (AZD7648) [nM]	IC50, cell viability 72 h (5-Fluorouracil) [nM]	IC50, cell viability 72 h [1] [nM]	IC50, cell viability 72 h (Gefitinib) [nM]	IC50, cell viability 72 h (Etoposide) [nM]	IC50, cell viability 72 h (MK-2206) [nM]	IC50, cell viability 72 h (Crizotinib) [nM]	IC50, cell viability 72 h (AZD1775) [nM]	IC50, cell viability 72 h (Savolitinib) [nM]	IC50, cell viability 72 h (AZD5153) [nM]	IC50, cell viability 72 h (Selumetinib) [nM]	IC50, cell viability 72 h (Olaparib) [nM]	IC50, cell viability 72 h (AZD4320) [nM]	IC50, cell viability 72 h (Gemcitabine) [nM]	IC50, cell viability 72 h (AZD6738) [nM]	IC50, cell viability 72 h (AZD5363) [nM]	IC50, cell viability 72 h (Doxorubicin) [nM]	IC50, cell viability 72 h (SRA737) [nM]	IC50, cell viability 72 h (Paclitaxel) [nM]	IC50, cell viability 72 h (Lapatinib) [nM]	IC50, cell viability 72 h (AZD2811) [nM]	IC50, cell viability 72 h (SN-38) [nM]	IC50, cell viability 72 h (AZD0156) [nM]	IC50, cell viability 72 h (SG3199) [nM]	IC50, cell viability 72 h (Dasatinib) [nM]	IC50, cell viability 72 h (Palbociclib) [nM]
KURAMOCHI (Ovarian Carcinoma)	> 1000	> 10000	> 10000	> 300	52.8	> 10000	> 10000	> 1000	> 1000	> 10000	> 20000	> 5000	> 10000	> 10000	> 10000	> 10000	2440	> 1000	140	> 10000	> 10000	> 1000	> 300	6970	> 10000	> 1000	4480	1670	> 10000	> 1000	171	> 3000	> 1	100	> 10000
LB831-BLC (Bladder Carcinoma)	> 1000	> 10000	5820	> 300	> 1000	> 10000	> 10000	> 1000	> 1000	> 10000	> 20000	> 5000	> 10000	> 10000	> 10000	> 10000	2140	> 1000	> 1000	> 10000	> 10000	> 1000	202	> 10000	> 10000	821	> 10000	69.1	> 10000	> 1000	45.8	> 3000	> 1	> 2000	> 10000
LS-180 (Colorectal Carcinoma)	> 1000	7410	2160	> 300	103	> 10000	> 10000	> 1000	74.4	> 10000	> 20000	2850	> 10000	1920	> 10000	> 10000	2030	> 1000	673	2680	> 10000	> 1000	11.8	3420	> 10000	168	> 10000	30.5	> 10000	> 1000	21.1	> 3000	> 1	> 2000	9720
